Read-outs that look alike come from different tables or passages of the source.
Key:
MES-SA cells [1] = test: MTT viability assay, MES-SA; format: cell-based, human
From the text: (§1) MDCK II canine kidney cells, A431 epidermoid carcinoma cells, the human uterine sarcoma cell lines MES-SA and the doxorubicin selected MES-SA-Dx5 were obtained from ATCC (MDCK II: No. CRL-2936™, A431: No. CRL-1555™, MES-SA: No. CRL-1976™, MES-SA/Dx5: No. CRL-1977™). ABCB1 was expressed in A431 and MES-SA cells using lentiviral transduction. The human cervix carcinoma cell line KB-3-1 and the vinblastine selected KB-v1were kind gifts from Dr. Michael M. Gottesman, National Institutes of Health. The phenotype of the resistant cells was verified using cytotoxicity assays. MDCK-B1 and MDCK-MM were established by the Sleeping Beauty transposon-based gene delivery system. OVCAR-8 and NCI-ADRres cells (obtained from the Division of Cancer Treatment and Diagnosis (DCTD) Tumor Repository (National Cancer Institute, Frederick, MD, USA)) were cultivated in RPMI-1640 (Sigma Aldrich, Budapest, Hungary), and other cell lines were cultivated in Dulbecco’s Modified Eagle Medium (DMEM, Sigma Aldrich, Budapest, Hungary), supplemented with 10% fetal bovine serum, 5 mM glutamine, and 50 unit/mL penicillin and streptomycin (Life Technologies, Carlsbad, CA, USA). All cell lines were cultivated at 37 °C, 5% CO2.
(§2) MTT viability assays were performed as described earlier with minor modifications. Briefly, cells were seeded into 96-well tissue culture plates (Sarstedt, Newton, NC, USA/Orange, Braine-l’Alleud, Belgium) at a density of 5000 cells/well and allowed to attach overnight. Test compounds were added to achieve the required final concentration in a final volume of 100 µL per well. After an incubation period of 72 h, the supernatant was removed and fresh medium containing the MTT reagent (0.083 mg/mL) was added. Incubation with MTT at 37 °C was terminated after 1 h by removing the supernatant and lysing the cells with 100 µL DMSO per well. Viability of the cells was measured spectrophotometrically based on the absorbance values at 540 nm using either a Perkin Elmer Victor X3 or an EnSpire microplate reader. Data were background corrected by subtraction of the signal obtained from unstained cell lysates and normalized to untreated cells. Curves were fitted by Prism software (GraphPad Software Inc., San Diego, CA, USA) using the sigmoidal dose-response model (comparing variable and fixed slopes). […] Significance was calculated using unpaired t-tests; results are given as *: p ≤ 0.05, **: p ≤ 0.01, ***: p ≤ 0.001, ****: p ≤ 0.0001.

MES-SA/Dx5 cells [2] = test: MTT viability assay, MES-SA/Dx5; format: cell-based, human; settings: for SR: Table S1, IC50 Pgp negative divided by Pgp positive cells; for SR_TQ: Table S1, presence of 1 µM TQ
From the text: as §1, §2

MES-SA cells [3] = test: ROS determination with DCFDA, MES-SA; format: cell-based, human; settings: 2 h
Method: (§3) Measurements were performed as described earlier. Briefly, cells were harvested, washed with PBS, and incubated with 10 µM DCFDA in a water bath shaker at 37 °C for 30 min in a density of 3 × 10^6 cells/mL. After washing with PBS, cells were seeded to 96-well plates in PBS in a density of 2 × 10^4 cells/well. Following the measurement of the basal fluorescence, test compounds were added in different concentrations and the fluorescence of the samples was followed at time intervals of 10 min. DCFDA solution in buffer was used as a cell free control to test for interaction of the test compounds with DCFDA. Data were analyzed as fold change of fluorescence compared to basal levels and untreated cells. Significance was calculated using unpaired t-tests; results are given as *: p ≤ 0.05, **: p ≤ 0.01, ***: p ≤ 0.001, ****: p ≤ 0.0001.
(§4) Table S3: Characterization of intracellular ROS production with the DCFDA assay for P -gp negative MES-SA and P-gp positive MES-SA/Dx5 cells. Fold changes in fluorescence are shown after a 2 h with the investigated 8 -hydroxyquinoline ligands. Data S-refer to Figure 7 and allow […]
(§5) concentration range from 6.25µ M to 50µ M. Fold change of fluorescence obtained in the presence of 5 mM NAC is given in brackets.

MES-SA/Dx5 cells [4] = test: ROS determination with DCFDA, MES-SA/Dx5; format: cell-based, human; settings: 2 h
Method: as §3, §4, §5

[5] = pKa by UV-visible spectrophotometric titrations; format: physicochemical; settings: 0.2 M KCl (ionic strength), T = 25 °C, I = 0.2 M (KCl)
[6] = Table S1, calculated as ligand equivalents, presence of 1 µM TQ, read-out: IC50 MES-SA_TQ
[7] = Table S1, ligands and in situ preformed complexes, calculated as ligand equivalents, absence of TQ, read-out: IC50 MES-SA
[8] = Table S1, calculated as ligand equivalents, absence of TQ, read-out: IC50 Dx5
[9] = Table S1, calculated as ligand equivalents, presence of 1 µM TQ, read-out: IC50 Dx5_TQ
[10] = Homo sapiens, MES-SA, Table 2, value outside brackets, read-out: MES-SA (toxicity, Table 2)
[11] = Homo sapiens, MES-SA/Dx5, Table 2, value outside brackets, read-out: MES-SA/Dx5 (toxicity, Table 2)
[12] = Table 2, value outside brackets
[13] = group named in the cell (NmorpholiniumH+, NpiperidiniumH+, NbenzylamineH2+), read-out: pKa (additional)

**Q.** Which results are given for `[Fe+3].[O-]c1c(CN2CCCCC2)ccc2cccnc12.[O-]c1c(CN2CCCCC2)ccc2cccnc12.[O-]c1c(CN2CCCCC2)ccc2cccnc12` [1/3 [Fe(Q-3)3]]?
**A.** IC50 (MES-SA cells [1]; [6]): 1.82 ± 0.71 µM; IC50 (MES-SA cells [1]; [7]): 2.12 ± 0.68 µM; SR (MES-SA/Dx5 cells [2]; absence of TQ): 2.33; IC50 (MES-SA/Dx5 cells [2]; [8]): 0.91 ± 0.22 µM; IC50 (MES-SA/Dx5 cells [2]; [9]): 1.45 ± 0.25 µM; SR_TQ (MES-SA/Dx5 cells [2]): 1.25

**Q.** For `[Fe+3].[O-]c1c(CNCc2ccccc2F)cc(Cl)c2cccnc12.[O-]c1c(CNCc2ccccc2F)cc(Cl)c2cccnc12.[O-]c1c(CNCc2ccccc2F)cc(Cl)c2cccnc12` [1/3 [Fe(Q-4)3]], which IC50 (MES-SA cells [1]; [6]) is on record?
**A.** 3.54 ± 0.13 µM

**Q.** What about the IC50 (MES-SA cells [1]; [7]) of the same compound?
**A.** 2.95 ± 1.33 µM

**Q.** And the SR (MES-SA/Dx5 cells [2]; absence of TQ)?
**A.** 13.14

**Q.** What about the IC50 (MES-SA/Dx5 cells [2]; [8]) of the same compound?
**A.** 0.22 ± 0.12 µM

**Q.** And the IC50 (MES-SA/Dx5 cells [2]; [9])?
**A.** 3.45 ± 0.33 µM

**Q.** What about the SR_TQ (MES-SA/Dx5 cells [2]) of the same compound?
**A.** 1.03

**Q.** Which IC50 (MES-SA cells [1]; [10]) does the source give for `Oc1ccc(Cl)c2cccnc12` [Compound 5-Cl-Q-1] here?
**A.** 10.4 ± 1.71 µM

**Q.** What about the “Fold change in fluorescence (DCFDA)” value (MES-SA cells [3]; 6.25 µM) of the same compound?
**A.** 1.147± 0.32

**Q.** What about the “Fold change in fluorescence (DCFDA)” value (MES-SA cells [3]; 6.25 µM, presence of 5 mM NAC (brackets)) of the same compound?
**A.** 1.668± 0.35

**Q.** And the “Fold change in fluorescence (DCFDA)” value (MES-SA cells [3]; 12.5 µM)?
**A.** 1.119± 0.30

**Q.** What about the “Fold change in fluorescence (DCFDA)” value (MES-SA cells [3]; 12.5 µM, presence of 5 mM NAC (brackets)) of the same compound?
**A.** 1.418± 0.24

**Q.** What about the “Fold change in fluorescence (DCFDA)” value (MES-SA cells [3]; 25 µM) of the same compound?
**A.** 1.071± 0.35

**Q.** And the “Fold change in fluorescence (DCFDA)” value (MES-SA cells [3]; 25 µM, presence of 5 mM NAC (brackets))?
**A.** 1.443± 0.22

**Q.** And the “Fold change in fluorescence (DCFDA)” value (MES-SA cells [3]; 50 µM)?
**A.** 0.891± 0.34

**Q.** And the “Fold change in fluorescence (DCFDA)” value (MES-SA cells [3]; 50 µM, presence of 5 mM NAC (brackets))?
**A.** 1.209± 0.23

**Q.** What about the “Fold change in fluorescence (DCFDA)” value (MES-SA/Dx5 cells [4]; MES-SA/Dx5, 6.25 µM) of the same compound?
**A.** 1.203± 0.32

**Q.** What about the “Fold change in fluorescence (DCFDA)” value (MES-SA/Dx5 cells [4]; MES-SA/Dx5, 6.25 µM, presence of 5 mM NAC (brackets)) of the same compound?
**A.** 1.279± 0.21

**Q.** And the “Fold change in fluorescence (DCFDA)” value (MES-SA/Dx5 cells [4]; MES-SA/Dx5, 12.5 µM)?
**A.** 1.291± 0.48

**Q.** What about the “Fold change in fluorescence (DCFDA)” value (MES-SA/Dx5 cells [4]; MES-SA/Dx5, 12.5 µM, presence of 5 mM NAC (brackets)) of the same compound?
**A.** 1.187± 0.23

**Q.** And the “Fold change in fluorescence (DCFDA)” value (MES-SA/Dx5 cells [4]; MES-SA/Dx5, 25 µM)?
**A.** 1.355± 0.46

**Q.** And the “Fold change in fluorescence (DCFDA)” value (MES-SA/Dx5 cells [4]; MES-SA/Dx5, 25 µM, presence of 5 mM NAC (brackets))?
**A.** 1.220± 0.22

**Q.** And the “Fold change in fluorescence (DCFDA)” value (MES-SA/Dx5 cells [4]; MES-SA/Dx5, 50 µM)?
**A.** 1.206± 0.49

**Q.** What about the “Fold change in fluorescence (DCFDA)” value (MES-SA/Dx5 cells [4]; MES-SA/Dx5, 50 µM, presence of 5 mM NAC (brackets)) of the same compound?
**A.** 1.152± 0.06

**Q.** And the IC50 (MES-SA/Dx5 cells [2]; [11])?
**A.** 9.66 ± 2.48 µM

**Q.** What about the “SR MES-SA/Dx5 (Table 2)” value (MES-SA/Dx5 cells [2]; Table 2, value in brackets (Tariquidar as in Table 1)) of the same compound?
**A.** 1.46

**Q.** And the “SR MES-SA/Dx5 (Table 2)” value (MES-SA/Dx5 cells [2]; [12])?
**A.** 1.08

**Q.** Which results are given for `CC(=O)N[C@@H](CS)C(=O)O` [NAC, N-acetyl cysteine, reference compound]?
**A.** Effect on viability of the cells, alone (MES-SA cells [1]; 5 mM, MES-SA): did not influence the viability; Effect on viability of the cells, alone (MES-SA/Dx5 cells [2]; 5 mM, MES-SA/Dx5): did not influence the viability

**Q.** For `Oc1c(CN2CCOCC2)ccc2ccccc12` [NC-2, 2-(morpholino-methyl)naphthalen-1-ol], which IC50 (MES-SA cells [1]; [10]) is on record?
**A.** 422 ± 34.9 µM

**Q.** And the IC50 (MES-SA/Dx5 cells [2]; [11])?
**A.** 562 ± 36.8 µM

**Q.** What about the “SR MES-SA/Dx5 (Table 2)” value (MES-SA/Dx5 cells [2]; [12]) of the same compound?
**A.** 0.75

**Q.** And the pKa [5, 13]?
**A.** 6.61 ± 0.02

**Q.** What about the pKa ([5]; read-out: pKa (OH)) of the same compound?
**A.** 9.21 ± 0.02

**Q.** For `Oc1c(CN2CCCCC2)ccc2ccccc12` [NC-3, 2-(piperidin-1-ylmethyl)naphthalen-1-ol], which IC50 (MES-SA cells [1]; [10]) is on record?
**A.** 140 ± 47.9 µM

**Q.** What about the IC50 (MES-SA/Dx5 cells [2]; [11]) of the same compound?
**A.** 163 ± 16.6 µM

**Q.** What about the “SR MES-SA/Dx5 (Table 2)” value (MES-SA/Dx5 cells [2]; [12]) of the same compound?
**A.** 0.86

**Q.** And the pKa [5, 13]?
**A.** 10.12 ± 0.01

**Q.** What about the pKa ([5]; read-out: pKa (OH)) of the same compound?
**A.** 6.06 ± 0.01

**Q.** For `Oc1c(CNCc2ccccc2F)ccc2ccccc12` [NC-4, 2-((2-fluorobenzylamino)methyl)naphthalen-1-ol], which IC50 (MES-SA cells [1]; [10]) is on record?
**A.** 44.7 ± 4.52 µM

**Q.** What about the IC50 (MES-SA/Dx5 cells [2]; [11]) of the same compound?
**A.** 31.1 ± 2.17 µM

**Q.** What about the “SR MES-SA/Dx5 (Table 2)” value (MES-SA/Dx5 cells [2]; [12]) of the same compound?
**A.** 1.44

**Q.** What about the pKa [5, 13] of the same compound?
**A.** 9.72 ± 0.02

**Q.** What about the pKa ([5]; read-out: pKa (OH)) of the same compound?
**A.** 5.5 ± 0.02

Reference: article PMC7796460, “Relation of Metal-Binding Property and Selective Toxicity of 8-Hydroxyquinoline Derived Mannich Bases Targeting Multidrug Resistant Cancer Cells” (Cancers, 2021)
